Laboratory results published in publication PMC467089, “Click estradiol dimers with novel aromatic bridging units: synthesis and anticancer evaluation” (Journal of Enzyme Inhibition and Medicinal Chemistry, 2024).
“Also recorded” adds a separate entry of the source.

Assays:
[1] = tested on: CCRF-CEM (childhood T-cell acute lymphoblastic leukaemia); experiment: MTS cytotoxicity assay, CCRF-CEM; assay type: cell-based; details: Homo sapiens, 72 h, read-out: IC50 cytotoxic activity CCRF-CEM
Description: (§1) The p53 deficient variant, HCT116p53−/−, was purchased from Horizon Discovery (Cambridge, UK). The daunorubicin-resistant CCRF-CEM cell line CEM-DNR bulk and paclitaxel-resistant K562-TAX sublines were developed in-house by exposing parental cell lines to escalating concentrations of daunorubicin and paclitaxel, respectively. Cells were maintained in the recommended culture medium (Sigma-Aldrich, St. Louis, MO) supplemented with 10% foetal calf serum, 100 U/mL penicillin, and 100 μg/mL streptomycin. The HUVEC line was obtained from PromoCell (Heidelberg, Germany). The cells were cultured in endothelial cell growth medium with SupplementMix for endothelial cells (PromoCell, Heidelberg, Germany). The incubation conditions were a humidified atmosphere of 95% air and 5% CO2 at 37 °C[10]. Cells were seeded in 384-well plates and after overnight incubation treated with compounds. All tested compounds were dissolved in 100% DMSO, and fourfold serial dilutions were performed using an Echo550 liquid handler (Labcyte, San Jose, CA). The experiments were performed in technical duplicates and three biological replicates. Cells were incubated with compounds for 72 h and thereafter 5 μL of MTS reagent was added to each well.

[2] = tested on: CEM-DNR (daunorubicin resistant variant of CCRF-CEM); experiment: MTS cytotoxicity assay, CEM-DNR; assay type: cell-based, human; details: for IC50: Homo sapiens, CEM-DNR, 72 h, read-out: IC50 cytotoxic activity CEM-DNR
Description: as §1

[3] = tested on: K562 (chronic myelogenous leukaemia); experiment: MTS cytotoxicity assay, K562; assay type: cell-based; details: Homo sapiens, K562, 72 h, read-out: IC50 cytotoxic activity K562
Description: as §1

[4] = tested on: K562-TAX (paclitaxel-resistant variant of K562); experiment: MTS cytotoxicity assay, K562-TAX; assay type: cell-based, human; details: for IC50: Homo sapiens, K562-Tax, 72 h, read-out: IC50 cytotoxic activity K562-TAX
Description: as §1

[5] = tested on: A549 (lung adenocarcinoma); experiment: MTS cytotoxicity assay, A549; assay type: cell-based, human; details: Homo sapiens, A549, 72 h, read-out: IC50 cytotoxic activity A549
Description: as §1

[6] = tested on: HCT116 (colorectal adenocarcinoma); experiment: MTS cytotoxicity assay, HCT116; assay type: cell-based; details: Homo sapiens, HCT-116, 72 h, read-out: IC50 cytotoxic activity HCT116
Description: as §1

[7] = tested on: HCT116p53−/− (p53 gene null variant of HCT116); experiment: MTS cytotoxicity assay, HCT116p53−/−; assay type: cell-based; details: Homo sapiens, HCT-116, 72 h, read-out: IC50 cytotoxic activity HCT116p53-
Description: as §1

U2OS (osteosarcoma) = experiment: MTS cytotoxicity assay, U2OS; assay type: cell-based, human; details: Homo sapiens, U2OS, 72 h, read-out: IC50 cytotoxic activity U2OS
Description: as §1

[8] = MTS cytotoxicity assay, MRC-5; assay type: cell-based; details: human
Description: as §1

[9] = MTS cytotoxicity assay, BJ; assay type: cell-based; details: human
Description: as §1

[10] = MTS cytotoxicity assay, HUVEC; assay type: cell-based; details: human
Description: as §1

porcine brain tubulin = target: T1, porcine brain tubulin (Sus scrofa, UniProt P02550+P02554); experiment: Tubulin polymerisation assay; assay type: biochemical; details: 10 μmol/L, Vmax relative to DMSO
T1 construct: purchased Cytoskeleton, Denver, CO; host or cells: porcine brain (tissue-purified)
T1 sequence (P02550 whole entry): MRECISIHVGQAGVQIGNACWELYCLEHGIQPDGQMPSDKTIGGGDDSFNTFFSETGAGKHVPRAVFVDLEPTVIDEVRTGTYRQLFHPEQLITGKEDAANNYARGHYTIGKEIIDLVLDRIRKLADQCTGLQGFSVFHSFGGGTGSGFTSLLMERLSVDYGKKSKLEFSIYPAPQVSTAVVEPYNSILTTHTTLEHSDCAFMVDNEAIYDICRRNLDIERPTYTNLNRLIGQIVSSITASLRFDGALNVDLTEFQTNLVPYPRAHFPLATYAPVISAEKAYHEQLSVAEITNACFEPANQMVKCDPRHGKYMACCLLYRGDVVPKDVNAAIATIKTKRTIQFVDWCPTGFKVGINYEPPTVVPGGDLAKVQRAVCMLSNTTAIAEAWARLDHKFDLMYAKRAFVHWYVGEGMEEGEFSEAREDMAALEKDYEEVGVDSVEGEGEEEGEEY
T1 sequence (P02554 whole entry): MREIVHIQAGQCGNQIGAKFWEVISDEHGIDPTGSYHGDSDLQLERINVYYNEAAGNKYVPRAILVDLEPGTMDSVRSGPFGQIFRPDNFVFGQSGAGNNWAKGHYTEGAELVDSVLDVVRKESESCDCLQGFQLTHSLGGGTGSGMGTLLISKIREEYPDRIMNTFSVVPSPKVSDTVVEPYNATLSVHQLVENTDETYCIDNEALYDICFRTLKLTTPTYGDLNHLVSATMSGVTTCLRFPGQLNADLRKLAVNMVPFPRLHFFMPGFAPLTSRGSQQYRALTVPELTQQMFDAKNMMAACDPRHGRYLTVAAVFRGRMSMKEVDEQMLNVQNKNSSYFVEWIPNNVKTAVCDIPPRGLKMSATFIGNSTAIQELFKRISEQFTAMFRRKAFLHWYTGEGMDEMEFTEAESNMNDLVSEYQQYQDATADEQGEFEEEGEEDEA
Description: Tubulin polymerisation assay kit (Cytoskeleton, Denver, CO) was used according to the manufacturer’s instructions. Polymerisation of porcine brain tubulin (>99% purity) was measured using an EnVision Multilabel Plate Reader (PerkinElmer, Waltham, MA) at 37 °C, in the presence of either 10 μmol/L test compounds or DMSO. Maximum polymerisation velocity (Vmax) was calculated from the polymerisation curves. Data visualisation was performed in OriginPro 2018b (b9.5.5.409) software (OriginLab Corporation, Northampton, MA)[10].

CCRF-CEM lymphoblasts [11] = experiment: Cell cycle analysis by flow cytometry (propidium iodide); assay type: cell-based, human
Description: (§2) To further characterise the mode of action of studied compounds, we analysed the cell cycle profile of CCRF-CEM cells treated with compounds for 24 h. […] The compounds ED1–ED9 and ED12 induced arrest in G2/M phase of the cell cycle (Figure 2(A)). To differentiate between G2 block and mitotic arrest, we used phospho-histone H3 (Ser10) mitotic marker (Figure 2(B)). […] Generally, dimers induced a dose-dependent increase of sub G1 cell population with fragmented DNA except for ED2 and ED4 (Figure 2(C)). […] To assess the proliferation of treated cells, they were subjected to 5-bromo-2-deoxyuridine (BrDU) labelling. […] Analogously, changes in 5-bromouridine (BrU) incorporation were examined to monitor overall RNA synthesis.
(§3) Treated CCRF-CEM cells were harvested, washed with ice-cold phosphate-buffered saline (PBS), fixed in cold 70% ethanol and stored at −20 °C. Prior to analysis, fixed cells were permeabilised with 0.25% Triton X-100 in PBS for 15 min, blocked in 1% bovine serum, and incubated with anti-phospho-Histone H3 (Ser^10) antibody (Merck Millipore, Burlington, MA). Subsequently, the cells were treated with 50 μg/mL RNAse, stained with propidium iodide and analysed by FACSCalibur (Becton Dickinson, Franklin Lakes, NJ) flow cytometer at 488 nm. Cell cycle distribution (G1, S, and G2/M) was analysed using ModFitLT software (Verity, Topsham, ME), and reflects only viable population prior to the fixing procedure. Particles with lower propidium iodide content than G1 phase cells were classified as non-viable cells with fragmented DNA. Flow cytometry data visualisation was performed using OriginPro 2018b (b9.5.5.409) software (OriginLab Corporation, Northampton, MA)[10].

CCRF-CEM lymphoblasts [12] = experiment: Phospho-histone H3 (Ser10) mitotic marker, flow cytometry; assay type: cell-based, human
Description: as §2, §3

CCRF-CEM lymphoblasts [13] = experiment: BrDU incorporation analysis (DNA synthesis); assay type: cell-based, human
Description: as §2
Thirty minutes before harvesting, cells were pulse-labelled with 10 μM BrDU. After overnight fixation in ice-cold 70% ethanol, cells were resuspended in 2 M HCl for 30 min at room temperature (RT), then washed with 0.1 M Na2B4O7 and blocked with PBS containing 0.5% Tween-20 and 1% BSA. BrDU incorporation was analysed using anti-BrdU antibody clone MoBu-1 (Exbio, Vestec, Czech Republic) and a secondary anti-mouse-FITC antibody (Sigma-Aldrich, St. Louis, MO). Cells were washed with PBS and stained with 0.1 mg/mL propidium iodide and 0.5 mg/mL RNase A for 1 h at RT and analysed by flow cytometry using a 488 nm single beam laser (FACSCalibur, Becton Dickinson, Franklin Lakes, NJ). The percentage of cells with incorporated BrDU was analysed using CellQuest software.

CCRF-CEM lymphoblasts [14] = experiment: BrU incorporation analysis (RNA synthesis); assay type: cell-based, human
Description: as §2
Prior to the trypsinisation, cells were treated with 1 mM BrU for 30 min. Subsequently, the cells were fixed in 1% paraformaldehyde with 0.05% of NP-40 for 15 min at RT and stored overnight at 4 °C. Fixed cells were washed with 1% glycine in PBS and stained with primary anti-BrdU antibody clone MoBu-1 crossreacting with BrU (Exbio, Vestec, Czech Republic) for 30 min at RT, washed with PBS and labelled with secondary anti-mouse-FITC antibody (Sigma-Aldrich, St. Louis, MO). Following 1-h incubation in 1% paraformaldehyde containing 0.05% NP-40, cells were stained with propidium iodide (0.1 mg/mL) and treated with RNase A (0.5 mg/mL) for 1 h at RT. The percentage of BrU positive cells was quantified using CellQuest software.

Row | Structure (SMILES) | IC50 [1] [µM] | IC50 [2] [µM] | IC50 [3] [µM] | IC50 [4] [µM] | IC50 [5] [µM] | IC50 [6] [µM] | IC50 [7] [µM] | IC50 (U2OS (osteosarcoma)) [µM] | IC50 at 72 h [8] [µM] | IC50 at 72 h [9] [µM] | IC50 at 72 h [10] [µM] | inhibitory activity against tubulin polymerisation (in words) (porcine brain tubulin) | <G1 (sub-G1, fragmented DNA), % of positive cells (CCRF-CEM lymphoblasts [11]; 1×IC50, 24 h) [%] | >G2/M (polyploidy), % of positive cells (CCRF-CEM lymphoblasts [11]; 1×IC50, 24 h) [%] | G0/G1, % of positive cells (CCRF-CEM lymphoblasts [11]; 1×IC50, 24 h) [%] | G2/M, % of positive cells (CCRF-CEM lymphoblasts [11]; 1×IC50, 24 h) [%] | S, % of positive cells (CCRF-CEM lymphoblasts [11]; 1×IC50, 24 h) [%] | <G1 (sub-G1, fragmented DNA), % of positive cells (CCRF-CEM lymphoblasts [11]; 5×IC50, 24 h) [%] | >G2/M (polyploidy), % of positive cells (CCRF-CEM lymphoblasts [11]; 5×IC50, 24 h) [%] | G0/G1, % of positive cells (CCRF-CEM lymphoblasts [11]; 5×IC50, 24 h) [%] | also measured
1 | C[C@]12CC[C@@H]3c4ccc(O)cc4CC[C@H]3[C@@H]1CC[C@@]2(O)c1cn(Cc2cccc(Cn3cc([C@]4(O)CC[C@H]5[C@@H]6CCc7cc(O)ccc7[C@H]6CC[C@@]54C)nn3)c2)nn1 [ED1, (17β,17′β)-17,17′-[Benzene-1,3-diylbis(methanediyl-1H-1,2,3-triazole-1,4-diyl)]bisestra-1,3,5(10)-triene-3,17-diol] | 1.6 ± 0.27 | > 50 | 1.63 ± 0.12 | 1.58 ± 0.16 | 1.68 ± 0.2 | 1.41 ± 0.3 | 1.5 ± 0.32 | 1.95 ± 0.44 | > 50 | > 50 | 0.0135 ± 0.002 | comparable or better inhibitory activity | 55.53 | 10.7 | 0.28 | 74.70 | 25.01 | 64.75 | 17.65 | 0.27 | IC50 cytotoxic activity K562-TAX [4]: sensitive; G2/M, % of positive cells (CCRF-CEM lymphoblasts [11]; 5×IC50, 24 h): 75.07%; S, % of positive cells (CCRF-CEM lymphoblasts [11]; 5×IC50, 24 h): 24.67%; pH3Ser10, % of positive cells (CCRF-CEM lymphoblasts [12]; 1×IC50, 24 h): 61.09%; pH3Ser10, % of positive cells (CCRF-CEM lymphoblasts [12]; 5×IC50, 24 h): 64.45%; BrDU, % of positive cells (CCRF-CEM lymphoblasts [13]; 1×IC50, 24 h): 38.15%; BrDU, % of positive cells (CCRF-CEM lymphoblasts [13]; 5×IC50, 24 h): 6.70%; BrU, % of positive cells (CCRF-CEM lymphoblasts [14]; 1×IC50, 24 h): 48.16%; BrU, % of positive cells (CCRF-CEM lymphoblasts [14]; 5×IC50, 24 h): 31.42%
2 | C[C@]12CC[C@@H]3c4ccc(O)cc4CC[C@H]3[C@@H]1CC[C@@]2(O)c1cn(Cc2ccc(O)c(Cn3cc([C@]4(O)CC[C@H]5[C@@H]6CCc7cc(O)ccc7[C@H]6CC[C@@]54C)nn3)n2)nn1 [ED12, 17,17′-[(3-Hydroxypyridine-2,6-diyl)bis(methylene-1H-1,2,3-triazole-1,4-diyl)]di[estra-1,3,5(10)-triene-3,17β-diol]] | 6.14 ± 0.93 | > 50 | 4.52 ± 0.64 | > 50 | > 50 | 8.78 ± 0.88 | 10.5 ± 2.48 | 16.8 ± 3.46 | 14.2 ± 3.52 | 11.3 ± 1.41 | 0.657 ± 0.132 | comparable or better inhibitory activity; also recorded: comparable to that of the original ED | 11.00 | 17.19 | 4.79 | 66.70 | 28.50 | 16.07 | 14.18 | 22.95 | G2/M, % of positive cells (CCRF-CEM lymphoblasts [11]; 5×IC50, 24 h): 32.79%; S, % of positive cells (CCRF-CEM lymphoblasts [11]; 5×IC50, 24 h): 44.26%; pH3Ser10, % of positive cells (CCRF-CEM lymphoblasts [12]; 1×IC50, 24 h): 13.49%; pH3Ser10, % of positive cells (CCRF-CEM lymphoblasts [12]; 5×IC50, 24 h): 47.08%; BrDU, % of positive cells (CCRF-CEM lymphoblasts [13]; 1×IC50, 24 h): 12.43%; BrDU, % of positive cells (CCRF-CEM lymphoblasts [13]; 5×IC50, 24 h): 7.46%; BrU, % of positive cells (CCRF-CEM lymphoblasts [14]; 1×IC50, 24 h): 33.92%; BrU, % of positive cells (CCRF-CEM lymphoblasts [14]; 5×IC50, 24 h): 8.14%
3 | COc1c(Cn2cc([C@]3(O)CC[C@H]4[C@@H]5CCc6cc(O)ccc6[C@H]5CC[C@@]43C)nn2)cc(C)cc1Cn1cc([C@]2(O)CC[C@H]3[C@@H]4CCc5cc(O)ccc5[C@H]4CC[C@@]32C)nn1 [ED8, (17β,17′β)-17,17′-[(2-Methoxy-5-methylbenzene-1,3-diyl)bis(methanediyl-1H-1,2,3-triazole-1,4-diyl)]bisestra-1,3,5(10)-triene-3,17-diol] | 1.38 ± 0.18 | 3.44 ± 0.69 | 0.69 ± 0.15 | 13.1 ± 3.69 | > 50 | 1.77 ± 0.16 | 2.01 ± 0.12 | 6.93 ± 1.16 | > 50 | > 50 | 0.079 ± 0.048 | comparable or better inhibitory activity | 16.29 | 7.25 | 34.59 | 31.94 | 33.47 | 24.86 | 10.51 | 4.71 | IC50 cytotoxic activity CEM-DNR [2]: maintained its activity; IC50 cytotoxic activity K562-TAX [4]: sensitive; G2/M, % of positive cells (CCRF-CEM lymphoblasts [11]; 5×IC50, 24 h): 78.93%; S, % of positive cells (CCRF-CEM lymphoblasts [11]; 5×IC50, 24 h): 16.36%; pH3Ser10, % of positive cells (CCRF-CEM lymphoblasts [12]; 1×IC50, 24 h): 11.01%; pH3Ser10, % of positive cells (CCRF-CEM lymphoblasts [12]; 5×IC50, 24 h): 0.63%; BrDU, % of positive cells (CCRF-CEM lymphoblasts [13]; 1×IC50, 24 h): 45.06%; BrDU, % of positive cells (CCRF-CEM lymphoblasts [13]; 5×IC50, 24 h): 5.15%; BrU, % of positive cells (CCRF-CEM lymphoblasts [14]; 1×IC50, 24 h): 59.19%; BrU, % of positive cells (CCRF-CEM lymphoblasts [14]; 5×IC50, 24 h): 3.11%
